Assay results published in PubChem BioAssay AID1919004 (Molecular Pharmacology Branch, DTP, NCI, 2023).

Test system: 883617-216-R-J1-PDC complex spheroids, growth, % test/control
Test: Anticancer human tumor 883617-216-R-J1-PDC patient-derived bladder carcinoma cell line growth inhibition [AhR]
Conditions: for IC50: curve of first compound; for viability, T/C: stronger effect = lower value
In short: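 Agents were dosed in half-log steps down from roughly clinical Cmax, or from 10 microM where Cmax was unknown, alone and with AhR antagonists. Read-out: percent test/control growth of tumor spheroids containing HUVEC and MSC stromal cells.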

[1] = second compound 0.1 µM, first compound 0.0316 µM
[2] = second compound 0.1 µM, first compound 0.1 µM
[3] = second compound 0.316 µM, first compound 0.0316 µM
[4] = second compound 0.316 µM, first compound 0.1 µM
[5] = second compound 1 µM, first compound 0.0316 µM
[6] = second compound 1 µM, first compound 0.1 µM
[7] = second compound 3.16 µM, first compound 0.0316 µM
[8] = second compound 3.16 µM, first compound 0.1 µM
[9] = second compound 10 µM, first compound 0.0316 µM
[10] = second compound 10 µM, first compound 0.1 µM
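Note: exposure lasted 7 days after dosing on day 3 of spheroid growth.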

CC1(C)CCC(CN2CCN(c3ccc(C(=O)NS(=O)(=O)c4ccc(NCC5CCOCC5)c([N+](=O)[O-])c4)c(Oc4cnc5[nH]ccc5c4)c3)CC2)=C(c2ccc(Cl)cc2)C1 + Cc1ccccc1N=Nc1ccc(NC(=O)c2ccnn2C)c(C)c1
IC50 (second compound 0.1 µM): > 10 µM | IC50 (second compound 0.316 µM): > 10 µM | IC50 (second compound 1 µM): > 10 µM | IC50 (second compound 3.16 µM): > 10 µM | IC50 (second compound 10 µM): > 10 µM | viability, T/C [1]: 97.5% | viability, T/C [2]: 90.6% | viability, T/C (second compound 0.1 µM, first compound 0.316 µM): 97% | viability, T/C (second compound 0.1 µM, first compound 1 µM): 99.9% | viability, T/C (second compound 0.1 µM, first compound 3.16 µM): 88.5% | viability, T/C (second compound 0.1 µM, first compound 10 µM): 61.4% | viability, T/C [3]: 95.5% | viability, T/C [4]: 85.9% | viability, T/C (second compound 0.316 µM, first compound 0.316 µM): 88.9% | viability, T/C (second compound 0.316 µM, first compound 1 µM): 85.3% | viability, T/C (second compound 0.316 µM, first compound 3.16 µM): 83.9% | viability, T/C (second compound 0.316 µM, first compound 10 µM): 54.9% | viability, T/C [5]: 97.8% | viability, T/C [6]: 85.4% | viability, T/C (second compound 1 µM, first compound 0.316 µM): 82.5% | viability, T/C (second compound 1 µM, first compound 1 µM): 80.2% | viability, T/C (second compound 1 µM, first compound 3.16 µM): 79.7% | viability, T/C (second compound 1 µM, first compound 10 µM): 67.1% | viability, T/C [7]: 85.7% | viability, T/C [8]: 82.6% | viability, T/C (second compound 3.16 µM, first compound 0.316 µM): 87.4% | viability, T/C (second compound 3.16 µM, first compound 1 µM): 84.8% | viability, T/C (second compound 3.16 µM, first compound 3.16 µM): 76.5% | viability, T/C (second compound 3.16 µM, first compound 10 µM): 57% | viability, T/C [9]: 81.9% | viability, T/C [10]: 85.1% | viability, T/C (second compound 10 µM, first compound 0.316 µM): 82% | viability, T/C (second compound 10 µM, first compound 1 µM): 77% | viability, T/C (second compound 10 µM, first compound 3.16 µM): 74% | viability, T/C (second compound 10 µM, first compound 10 µM): 54.7%

CCN(c1cc(-c2ccc(CN3CCOCC3)cc2)cc(C(=O)NCc2c(C)cc(C)[nH]c2=O)c1C)C1CCOCC1 + Cc1ccccc1N=Nc1ccc(NC(=O)c2ccnn2C)c(C)c1
IC50 (second compound 0.1 µM): > 3 µM | IC50 (second compound 0.316 µM): > 3 µM | IC50 (second compound 1 µM): > 3 µM | IC50 (second compound 3.16 µM): > 3 µM | IC50 (second compound 10 µM): > 3 µM | viability, T/C (second compound 0.1 µM, first compound 0.00949 µM): 88.3% | viability, T/C (second compound 0.1 µM, first compound 0.03 µM): 100% | viability, T/C (second compound 0.1 µM, first compound 0.0949 µM): 88.5% | viability, T/C (second compound 0.1 µM, first compound 0.3 µM): 91.7% | viability, T/C (second compound 0.1 µM, first compound 0.949 µM): 80.3% | viability, T/C (second compound 0.1 µM, first compound 3 µM): 84.3% | viability, T/C (second compound 0.316 µM, first compound 0.00949 µM): 83.3% | viability, T/C (second compound 0.316 µM, first compound 0.03 µM): 91.5% | viability, T/C (second compound 0.316 µM, first compound 0.0949 µM): 86.4% | viability, T/C (second compound 0.316 µM, first compound 0.3 µM): 85.3% | viability, T/C (second compound 0.316 µM, first compound 0.949 µM): 88.3% | viability, T/C (second compound 0.316 µM, first compound 3 µM): 86.1% | viability, T/C (second compound 1 µM, first compound 0.00949 µM): 80.7% | viability, T/C (second compound 1 µM, first compound 0.03 µM): 82.2% | viability, T/C (second compound 1 µM, first compound 0.0949 µM): 84% | viability, T/C (second compound 1 µM, first compound 0.3 µM): 78.3% | viability, T/C (second compound 1 µM, first compound 0.949 µM): 82.8% | viability, T/C (second compound 1 µM, first compound 3 µM): 96.4% | viability, T/C (second compound 3.16 µM, first compound 0.00949 µM): 75.8% | viability, T/C (second compound 3.16 µM, first compound 0.03 µM): 84.5% | viability, T/C (second compound 3.16 µM, first compound 0.0949 µM): 83.4% | viability, T/C (second compound 3.16 µM, first compound 0.3 µM): 85.5% | viability, T/C (second compound 3.16 µM, first compound 0.949 µM): 88.4% | viability, T/C (second compound 3.16 µM, first compound 3 µM): 79.2% | viability, T/C (second compound 10 µM, first compound 0.00949 µM): 80% | viability, T/C (second compound 10 µM, first compound 0.03 µM): 86.1% | viability, T/C (second compound 10 µM, first compound 0.0949 µM): 75.6% | viability, T/C (second compound 10 µM, first compound 0.3 µM): 75.2% | viability, T/C (second compound 10 µM, first compound 0.949 µM): 77.6% | viability, T/C (second compound 10 µM, first compound 3 µM): 81.4%

Cn1ncnc1C1c2n[nH]c(=O)c3cc(F)cc(c23)NC1c1ccc(F)cc1 (stereo not given) + Cc1ccccc1N=Nc1ccc(NC(=O)c2ccnn2C)c(C)c1
IC50 (second compound 0.1 µM): > 0.1 µM | IC50 (second compound 0.316 µM): > 0.1 µM | IC50 (second compound 1 µM): > 0.1 µM | IC50 (second compound 3.16 µM): > 0.1 µM | IC50 (second compound 10 µM): > 0.1 µM | viability, T/C (second compound 0.1 µM, first compound 0.000316 µM): 98.1% | viability, T/C (second compound 0.1 µM, first compound 0.001 µM): 97.5% | viability, T/C (second compound 0.1 µM, first compound 0.00316 µM): 92.7% | viability, T/C (second compound 0.1 µM, first compound 0.01 µM): 88.7% | viability, T/C [1]: 89.2% | viability, T/C [2]: 79.9% | viability, T/C (second compound 0.316 µM, first compound 0.000316 µM): 76.4% | viability, T/C (second compound 0.316 µM, first compound 0.001 µM): 85.7% | viability, T/C (second compound 0.316 µM, first compound 0.00316 µM): 82.7% | viability, T/C (second compound 0.316 µM, first compound 0.01 µM): 83.4% | viability, T/C [3]: 71.9% | viability, T/C [4]: 78.3% | viability, T/C (second compound 1 µM, first compound 0.000316 µM): 87.5% | viability, T/C (second compound 1 µM, first compound 0.001 µM): 87.1% | viability, T/C (second compound 1 µM, first compound 0.00316 µM): 86.1% | viability, T/C (second compound 1 µM, first compound 0.01 µM): 78.6% | viability, T/C [5]: 81% | viability, T/C [6]: 81.1% | viability, T/C (second compound 3.16 µM, first compound 0.000316 µM): 82% | viability, T/C (second compound 3.16 µM, first compound 0.001 µM): 80.1% | viability, T/C (second compound 3.16 µM, first compound 0.00316 µM): 78.4% | viability, T/C (second compound 3.16 µM, first compound 0.01 µM): 87.3% | viability, T/C [7]: 84.6% | viability, T/C [8]: 85.5% | viability, T/C (second compound 10 µM, first compound 0.000316 µM): 70.4% | viability, T/C (second compound 10 µM, first compound 0.001 µM): 98.1% | viability, T/C (second compound 10 µM, first compound 0.00316 µM): 75.8% | viability, T/C (second compound 10 µM, first compound 0.01 µM): 81.8% | viability, T/C [9]: 63.6% | viability, T/C [10]: 76%
